Article PMC8885657, “HPV infection alters vaginal microbiome through down-regulating host mucosal innate peptides used by Lactobacilli as amino acid sources” (Nature Communications, 2022)
Where “and” joins values, the source holds several entries; their conditions need not be identical. Equal entries are not always repeated. Where no end group is shown, it is not given here.

How the values were obtained:
L. jensenii [1] = experiment: ATP measurement in bacteria (BacTiter-Glo); type: cell-based, Lactobacillus jensenii; conditions: 6 × 10^7 CFU/ml, peptide 5 µg, 10 mM SPB, 6 h, 37 °C; luminescence; n = 5; statistical significance not reached in all conditions
Experimental: (§1) ATP level in bacteria was determined using the BacTiter-Glo Microbial Cell Viability Assay (Promega) according to manufacturer’s recommendations. For each bacterial species, 6 ×10^7 CFU/ml were mixed with elafin or S100A7 (5 µg) in 10 mM SPB and incubated 6 h at 37 °C. One hundred µl of bacterial-peptide solution were then mixed with an equal volume of BacTiter-Glo reagent and incubated for 5 min at room temperature. Luminescence was measured using a Centro LB960 microplate luminometer (Berthold Technologies, Bad Wildbad, Germany).

L. iners [2] = experiment: Internalization of fluorescent-labeled peptides in bacteria (flow cytometry); type: cell-based, Lactobacillus iners; conditions: Atto 488-labeled peptide 5 µg/ml, 5 × 10^4 CFU/ml, 10 mM SPB, 1 h30, 37 °C, trypan blue, n = 3
Experimental: (§2) To determine the incorporation of selected peptides (or their hydrolyzed products) within the cytoplasm of several bacterial species, free amine groups (lysine residues and N-terminus) were first conjugated with Atto 488 dye according to manufacturer’s recommendations (Atto 488 protein labeling kit, Sigma Aldrich). A total 5 × 10^4 colony-forming unit (CFU)/ml were then mixed with fluorescent labeled peptides (5 µg/ml) in 10 mM sodium phosphate buffer (final volume 100 µl) and incubated for 1 h30 at 37 °C before being analyzed by flow cytometry. Where indicated, trypan blue was added before the analysis in order to exclusively consider cytoplasmic fluorescence.

[3] = tested on: Lactobacillus crispatus DSM 20356; experiment: Antimicrobial assay (surviving colonies, CFU count); type: cell-based; conditions: for Bacterial survival (surviving colonies): Fig 5E, L. crispatus, individual replicates; for Bacterial survival (surviving colonies) / positive effect on survival in acidic conditions: pH 5.8; for positive effect on survival in potassium phosphate buffer: KPB pH 7.4, 10 mM; for positive effect on survival in potassium phosphate buffer / positive effect on survival in acidic conditions / effect on bacterial growth/survival (percentage of surviving colonies): 6 h; for positive effect on survival in potassium phosphate buffer / positive effect on survival in acidic conditions: n = 4; for effect on bacterial growth/survival (percentage of surviving colonies): peptide 1–10 µg/ml, 5 × 10^4 CFU/ml, 10 mM sodium phosphate buffer, 37 °C, plated on Columbia Blood agar, n = 3; for antimicrobial/protective activity in reducing environment: peptides pre-incubated with 2 mM DTT 30 min 37 °C, 6 h with bacteria, n = 6; for incubation time at which a significant increased percentage of surviving colonies was detected: starvation assay (no nutrients), 45 min to 9 h, n = 8
Experimental: (§3) Bacterial strains Lactobacillus crispatus DSM 20356, Lactobacillus iners CIP 105923 and Garnerella vaginalis CCUG 43336 were kindly provided by the Department of Clinical Microbiology at University Hospital Center of Liege. Lactobacillus jensenii LMG 6414 was obtained from BCCM/LMG Bacteria Collection (University of Gent, Belgium). Log-phase bacteria were grown on Columbia agar with 5% sheep blood (Becton Dickinson, Franklin Lakes, NJ, USA) at 37 °C in a humidified CO2 atmosphere (Lactobacilli) or in anaerobic jars (G. vaginalis). To analyze the antimicrobial effect of innate peptides expressed by vaginal/cervical mucosa, 5 × 10^4 colony-forming unit (CFU)/ml were mixed with different peptides (concentration range: 1–10 µg/ml) in 10 mM sodium phosphate buffer (SPB) (final volume 100 µl) and incubated for 45 min to 9 h at 37 °C. Where indicated, the peptides were incubated with 2 mM dithiothreitol (DTT) (Invitrogen, Carlsbad, CA, USA) for 30 min at 37 °C before adding the bacteria. In indicated experiments, incubation was carried out in potassium phosphate buffer (KPB) (pH: 7.4, 10 mM). The following peptides were tested: HβD1 (PeptaNova, Sandhausen, Germany), HβD2 (PeptaNova), HβD3 (PeptaNova), HβD4 (PeptaNova), HD-5 (PeptaNova), HD-6 (PeptaNova), elafin (PeptaNova), S100A7 (Abnova, Taipei City, Taiwan) and SLPI (R&D Systems, Minneapolis, MI, USA). Bacterial suspensions were then plated on Columbia Blood agar plates for 24–48 h to determine CFU. High-resolution images for each condition were taken. Colony detection and counts were finally performed using ImageJ software (NIH, Bethesda, MD, USA) and verified by manual counting.

[4] = tested on: Lactobacillus jensenii LMG 6414; experiment: as above; type: cell-based; conditions: for Bacterial survival (surviving colonies): Fig 5E, L. jensenii, individual replicates; for Bacterial survival (surviving colonies) / positive effect on survival in acidic conditions: pH 5.8; for positive effect on survival in potassium phosphate buffer: KPB pH 7.4, 10 mM; for positive effect on survival in potassium phosphate buffer / positive effect on survival in acidic conditions / effect on bacterial growth/survival (percentage of surviving colonies): 6 h; for positive effect on survival in potassium phosphate buffer / positive effect on survival in acidic conditions / antimicrobial/protective activity in reducing environment: n = 4; for effect on bacterial growth/survival (percentage of surviving colonies): peptide 1–10 µg/ml, 5 × 10^4 CFU/ml, 10 mM sodium phosphate buffer, 37 °C, plated on Columbia Blood agar, n = 3; for antimicrobial/protective activity in reducing environment: peptides pre-incubated with 2 mM DTT 30 min 37 °C, 6 h with bacteria; for incubation time at which a significant increased percentage of surviving colonies was detected: starvation assay (no nutrients), 45 min to 9 h, n = 8
Experimental: as §3

[5] = tested on: Lactobacillus iners CIP 105923; experiment: as above; type: cell-based; conditions: for Bacterial survival (surviving colonies): Fig 5E, L. iners, individual replicates; for Bacterial survival (surviving colonies) / positive effect on survival in acidic conditions: pH 5.8; for positive effect on survival in potassium phosphate buffer: KPB pH 7.4, 10 mM; for positive effect on survival in potassium phosphate buffer / positive effect on survival in acidic conditions / effect on bacterial growth/survival (percentage of surviving colonies): 6 h; for positive effect on survival in potassium phosphate buffer / positive effect on survival in acidic conditions: n = 4; for effect on bacterial growth/survival (percentage of surviving colonies): peptide 1–10 µg/ml, 5 × 10^4 CFU/ml, 10 mM sodium phosphate buffer, 37 °C, plated on Columbia Blood agar, n = 3; for antimicrobial/protective activity in reducing environment: peptides pre-incubated with 2 mM DTT 30 min 37 °C, 6 h with bacteria, n = 5; for incubation time at which a significant increased percentage of surviving colonies was detected: starvation assay (no nutrients), n = 6
Experimental: as §3

L. crispatus [6] = experiment: ATP measurement in bacteria (BacTiter-Glo); type: cell-based, Lactobacillus crispatus; conditions: 6 × 10^7 CFU/ml, peptide 5 µg, 10 mM SPB, 6 h, 37 °C; luminescence; n = 5; statistical significance not reached in all conditions
Experimental: as §1

L. jensenii [7] = experiment: Internalization of fluorescent-labeled peptides in bacteria (flow cytometry); type: cell-based, Lactobacillus jensenii; conditions: Atto 488-labeled peptide 5 µg/ml, 5 × 10^4 CFU/ml, 10 mM SPB, 1 h30, 37 °C, trypan blue, n = 3
Experimental: as §2

L. iners [8] = experiment: ATP measurement in bacteria (BacTiter-Glo); type: cell-based, Lactobacillus iners; conditions: 6 × 10^7 CFU/ml, peptide 5 µg, 10 mM SPB, 6 h, 37 °C; luminescence; n = 5; statistical significance not reached in all conditions
Experimental: as §1

L. crispatus [9] = experiment: Internalization of fluorescent-labeled peptides in bacteria (flow cytometry); type: cell-based, Lactobacillus crispatus; conditions: Atto 488-labeled peptide 5 µg/ml, 5 × 10^4 CFU/ml, 10 mM SPB, 1 h30, 37 °C, trypan blue, n = 3
Experimental: as §2

E-cadherin (CDH1) = experiment: Reactivation of hypermethylated CDH1 gene (Western blot); type: cell-based, human; conditions: 5 µM
Experimental: Immortalized keratinocytes (1.5 × 10^5 cells per well of a six-well plate) were transfected with ON-TARGETplus SMARTpool siRNAs targeting p65, β-catenin or c-Myc (Dharmacon, Lafayette, CO, USA) using Oligofectamine Transfection Reagent (Invitrogen). Oligos targeting the firefly luciferase gene (siGL2) were used as control. For each experiment, siRNA (40 nM) and 6 µl of Oligofectamine were diluted in 1 ml of Optimem (Invitrogen). The cells were incubated with the mixture for 4 h at 37 °C. Twenty-four hours after transfection, cells were either harvested or stimulated with LPS (2 µg/ml) or TNFα (20 ng/ml) and experiments were performed. For the chemical inhibition of NF-kB or c-Myc, BAY 11-7082 (5 µM, Sigma Aldrich) or 10058-F4 (40 µM, Selleckchem, Houston, TX, USA) was added to cell cultures before RNA expression analyses. […]
After extraction in 1% SDS buffer (total extraction) containing protease and phosphatase inhibitors (Roche) and quantification (BCA protein assay kit; Pierce, Rockford, IL, USA), twenty micrograms of proteins were separated on 10% SDS-PAGE and transferred to PVDF membranes (Roche). […] The protein bands were detected using an enhanced chemiluminescence system (Westar ECL-Sun, Cyanagen, Bologna, Italy) and finally quantified by densitometry using ImageJ software. […]

Row | Molecule | ATP production (L. jensenii [1]) | internalization of fluorescent-labeled peptide (or hydrolyzed products) within the cytoplasm of bacteria (L. iners [2]) | Bacterial survival (surviving colonies) [3] | positive effect on survival in potassium phosphate buffer [3] | positive effect on survival in acidic conditions [3] | effect on bacterial growth/survival (percentage of surviving colonies) [3] | antimicrobial/protective activity in reducing environment [3] | incubation time at which a significant increased percentage of surviving colonies was detected [3] | Bacterial survival (surviving colonies) [4] | positive effect on survival in potassium phosphate buffer [4] | positive effect on survival in acidic conditions [4] | effect on bacterial growth/survival (percentage of surviving colonies) [4] | antimicrobial/protective activity in reducing environment [4] | incubation time at which a significant increased percentage of surviving colonies was detected [4] | Bacterial survival (surviving colonies) [5] | positive effect on survival in potassium phosphate buffer [5] | positive effect on survival in acidic conditions [5] | effect on bacterial growth/survival (percentage of surviving colonies) [5] | antimicrobial/protective activity in reducing environment [5] | incubation time at which a significant increased percentage of surviving colonies was detected [5] | further results
1 | elafin: "defensin-like" innate peptide constitutively secreted by cervical/vaginal mucosa (PeptaNova) (AQEPVKGPVSTKPGSCPIILIRCAMLNPPNRCLKDTDCPGIKKCCEGSCGMACFVPQ; not fully specified; ends and bridges not checked; UniProt P19957 61-117, looked up) | increase of ATP production | internalization | 124.66 and 146.1 and 157.25 and 154.15 | did not modify the positive effect | did not modify the positive effect | do not display any antimicrobial activities | significant protective effect | only detected after 3 or 6 h | 223.81 and 226.19 and 261.90 and 150.02 | did not modify the positive effect | did not modify the positive effect | do not display any antimicrobial activities | significant protective effect | only detected after 3 or 6 h | 148.35 and 185.56 and 157.03 and 142.84 | did not modify the positive effect | did not modify the positive effect | do not display any antimicrobial activities | significant protective effect | only detected after 3 or 6 h | ATP production (L. crispatus [6]): increase of ATP production; internalization of fluorescent-labeled peptide (or hydrolyzed products) within the cytoplasm of bacteria (L. jensenii [7]): internalization; ATP production (L. iners [8]): increase of ATP production; internalization of fluorescent-labeled peptide (or hydrolyzed products) within the cytoplasm of bacteria (L. crispatus [9]): internalization
2 | Nc1ncn([C@H]2C[C@H](O)[C@@H](CO)O2)c(=O)n1 [5-aza-deoxycytidine] |  |  |  |  |  |  |  |  |  |  |  |  |  |  |  |  |  |  |  |  | CDH1 (E-cadherin) expression, Western blot (E-cadherin (CDH1)): reactivation of silenced CDH1 gene
3 | S100A7: "defensin-like" innate peptide constitutively secreted by cervical/vaginal mucosa (Abnova) (protein, UniProt P31151 2-101, looked up) Protein S100-A7: SNTQAERSIIGMIDMFHKYTRRDDKIEKPSLLTMMKENFPNFLSACDKKGTNYLADVFEKKDKNEDKKIDFSEFLSLLGDIATDYHKQSHGAAPCSGGSQ | increase of ATP production | internalization | 127.74 and 112.92 and 139.54 and 168.69 | did not modify the positive effect | did not modify the positive effect | do not display any antimicrobial activities | significant protective effect | only detected after 3 or 6 h | 419.05 and 164.29 and 304.76 and 269.05 | did not modify the positive effect | did not modify the positive effect | do not display any antimicrobial activities | significant protective effect | only detected after 3 or 6 h | 138.53 and 246.67 and 123.50 and 159.47 | did not modify the positive effect | did not modify the positive effect | do not display any antimicrobial activities | significant protective effect | only detected after 3 or 6 h | ATP production (L. crispatus [6]): increase of ATP production; internalization of fluorescent-labeled peptide (or hydrolyzed products) within the cytoplasm of bacteria (L. jensenii [7]): internalization; ATP production (L. iners [8]): increase of ATP production; internalization of fluorescent-labeled peptide (or hydrolyzed products) within the cytoplasm of bacteria (L. crispatus [9]): internalization
